This note sets out measurements from patent publication US6310247A, “7-aryl-6(Z)-heptatrienoic acid retinamides” (Hoffmann-LA Roche Inc., priority 1999, dated 2001).

In the assay the test system is H1299 cells. Nature of the assay: Apoptosis: cell death detection by ELISA, H1299 (lung large cell carcinoma). It is filed as cell-based. The following applies: Homo sapiens, NCI-H1299, read-out: Fold induction of apoptosis compared to no drug control. On the procedure: Lung, large cell carcinoma, human (H1299), obtained from ATCC (CRL-5803), were grown in Gibco's Delbecco Minimum Essential media (DMEM), high glucose, supplemented with sodium pyruvate, 10% FBS and 13 ng/mL gentamicin. Cells were incubated at 37° C., 4.5% CO2 and 95.5% humidified air.
2. Apoptosis: Cell death detection by ELISA:
Compounds of formula 1 were tested for the ability to cause apoptosis as follows:
Cells and media were collected, cells were pelleted, resuspended in 100 μl lysis buffer (50 mM Tris-Cl (pH=8.0), 20 mM EDTA, 1% NP-40e) and incubated 30 minutes at 4° C. to lyse. Cell debris was spun down and an aliquot (30 μl) of the […] was removed for protein determination and stored at -20° C. An additional 280 μl of lysis buffer, was added, mixed thoroughly and spun down at 14,000 RPM for 10 minutes at 4° C. An aliquot was removed (180 μl) and the sample was stored at -20° C. until testing.
A commercially available apoptosis detection kit, obtained from Boehringer Mannheim (Cat. No. 1544-674), was used as per the directions provided with the kit (Cell Death Detection ELISA). However, the protocol was modified in that a 1:40 to 1:100 dilution of sample was prepared, rather than the recommended 1:10 dilution, due to the increase in cell number used to prepare the sample extract and the subsequent increase in ELISA reactivity. The assay measures apoptosis by quantifying the amount of nucleosomal fragmentation from the extracts of cells treated with the test compounds (samples). These nucleosomal fragments, generated by the activation of endonucleases, are a known downstream effector of apoptosis. Antihistone antibodies are used to fix any nucleosomal fragments in the sample to the well of the microtiter plates. The sample is then incubated with anti-DNA antibodies conjugated to peroxidase and subsequently incubated with the peroxidase substrate, ABTS. The resulting colorimetric change is measured spectrophotometrically at 405/490nm.
The total protein content of each sample was determined for the purpose of normalizing the ELISA values to amount of sample loaded. Microplate assay protocol described in the instruction manual, for (Biorad DC Assay, Cat.#500-0116) section 5.2. The protein concentrations were calculated based upon a linear regression curve.
d) ELISA assay calculations
Relative ELISA O.D. readings are determined by subtracting the ELISA plate background O.D. value. No drug control O.D. value (lysis buffer only) was subtracted from sample O.D. value. A correction coefficient (CC), based on the sample protein concentration compared to no drug control, was determined to correct the sample O.D. following subtraction of the background O.D. (BCS O.D.). The fold increase over no drug control is calculated and normalized to the total protein concentration of the samples by multiplying against the correction coefficient.
To determine the fold increase in ELISA O.D., obtain the following O.D. measurements:
ELISA plate background--lysis buffer only (EPB);
no drug treated control--cell sample treated with DMSO (NDT);
drug treated sample--cell sample treated with a compound of formula 1 (DT) Subtract EPB from NDT (NDT-EPB) and DT (DT-EPB). The fold increase of the treated over the control is then (DT-EPB)/(NDT-EPB).
To determine the total protein concentration of the samples, obtain the total protein concentration in mg/ul calculated using standard linear regression formula (y=mx+b) based on BSA standards. B=ELISA background. Protein concentration (PC)(mg/ml)=(sample absorbance-b)/x.
Correction coefficient (cc) is (NDT)(PC)/(DT)(PC).
Determine fold increase of ELISA (FT) normalized to total PC:
nDT is DT×cc (which is DT O.D. normalized to PC)
nNDT is NDT×cc (which is NDT O.D. normalized to PC)
FI normalized to PC is nDT/nNDT.

Read-outs that look alike come from different tables or passages of the source.

Turning to `C/C(=C/C=C/C(C)=C/C(=O)Nc1ccc(O)cc1)c1cc(C(F)(F)F)cc(C(F)(F)F)c1` [N-(4-hydroxyphenyl)-(2E,4E,6Z)-7-[3,5-bis(trifluoromethyl)phenyl]-3,7-dimethyl-2,4,6-heptatrienamide], under “24 hrs”, the fold induction at 1 µM turned out to be 1, the fold induction at 3.3 µM came to 3 and the fold induction at 10 µM was 2. Further, for the setting “48 hrs”, the fold induction at 1 µM came out at 1, the fold induction at 3.3 µM was 10 and the fold induction at 10 µM was found to be 12. Under “72 hrs”, the fold induction at 1 µM worked out at 1, the fold induction at 3.3 µM came to 17 and the fold induction at 10 µM was 20.
